“And” between values parts separate entries of the source, which are not always exact repeats. Equal entries are not always repeated. Where two headings read alike, the source gives them in different places.
Target: T1, PfCRT^Dd2 (Plasmodium falciparum, UniProt Q8IBZ9, A220S/I356T/K76T/M74I/N326S/N75E/Q271E/R371I)
T1 sequence (Q8IBZ9 1-424 M74I/N75E/K76T/A220S/Q271E/N326S/I356T/R371I): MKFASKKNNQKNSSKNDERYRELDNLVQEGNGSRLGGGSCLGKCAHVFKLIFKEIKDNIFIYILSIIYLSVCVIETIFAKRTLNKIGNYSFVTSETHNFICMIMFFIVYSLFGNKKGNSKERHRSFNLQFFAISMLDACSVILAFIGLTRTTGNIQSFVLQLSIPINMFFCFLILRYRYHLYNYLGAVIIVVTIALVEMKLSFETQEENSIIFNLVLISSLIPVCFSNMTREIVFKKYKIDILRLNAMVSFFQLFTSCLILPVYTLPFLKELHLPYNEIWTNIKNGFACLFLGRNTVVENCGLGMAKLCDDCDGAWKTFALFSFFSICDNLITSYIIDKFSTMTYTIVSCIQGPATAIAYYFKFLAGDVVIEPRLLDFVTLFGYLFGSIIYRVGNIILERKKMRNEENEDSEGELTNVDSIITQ
Test: Competition kinetics of drug transport (radiolabeled substrate plus cold inhibitor), PfCRT^Dd2-expressing oocytes
Assay type: cell-based
Set-up: expressed in transfected cells; host or cells: Xenopus laevis oocytes injected with in vitro transcribed RNA (pSP64T)
Settings: for PfCRTDd2-mediated PPQ transport 500 µM PPQ: single replicates; for Vmax, maximal velocity of drug transport: global fit; for β, partiality factor: factor on transport of the labeled drug by the other drug
Protocol: The experimental procedure and the data analysis were as described above.
The difference between the two models lies in the value of α, a parameter describing how much the affinity for the substrate changes when the inhibitor is already bound, and vice versa. […] The resulting Vmax,app values and the Vmax,app/KM,app ratios were plotted as a function of the inhibitor concentration (Fig 5A).
Drug transport assays were performed as previously described. Briefly, measurements of radiolabeled drug uptake were made over 1 h, unless otherwise specified. […] Where specified, one or more unlabeled drugs were also present at the indicated concentrations. […] The uptake assays were terminated by removing the oocytes from the reaction medium and washing them three times with 2 mL of ice-cold ND96 buffer. Each oocyte was transferred to a separate scintillation vial and lysed by the addition of 200 μL of a 5% SDS solution. The radioactivity in the sample was measured using a liquid scintillation analyser Tri-Carb 4910 TR (PerkinElmer). Water-injected oocytes were analyzed in parallel as a negative control. The buffer from each condition was measured in duplicate in parallel to each experiment to transform counts per minute into pmol of drug. Drug uptake attributable to PfCRT was determined by subtracting the background uptake from water-injected oocytes from that of PfCRT-expressing oocytes. In all cases, at least three independent experiments were performed on oocytes from different frogs, and for each condition in an experiment, measurements were made from 10 oocytes per treatment.
The following equations were adopted from Segel (1993), and the reader is referred to that text for the assumptions made in the author’s approach in the derivation of each equation [31]. The concentration of substrate is denoted as [S1] and the concentration of the inhibiting substrate is denoted as [S2]. KS1 and KS2 are the dissociation constants for the respective substrate-protein complexes.
Analyses of the kinetic data were performed using SigmaPlot version 13.0 and Python. The drug competition models were globally fit to the kinetic data using the least-squares method and ranked according to their corrected Akaike information criterion difference (ΔAICC) and their Akaike weight, using Python. The two top-ranked models were compared using an F-test.
This factor reflects how much the affinity of the transporter for one drug changes when the other drug is already bound in the protein cavity. In the former model, α > 0 and α ≠ 1. In the latter model, it could be thought of as if α = 1. Because of this, discriminating between the two models also means determining the value of α. In Mixed-type (Partial) inhibition, the apparent maximal velocity (Vmax,app) is given by Eq 22, Vmax,app=Vmax(1+β[S2]/αKS2)/(1+[S2]/αKS2) (Eq 22)
Vmax,app is the maximal rate of substrate transport at a certain inhibitor concentration. The half-maximal inhibitory concentration is given by the term in the denominator different from [S2], which in this case is αKS2. This means that by plotting Vmax,app as a function of [S2], the value of αKS2 can be derived after fitting the curve to Eq 23.
The half-maximal inhibitory concentration derived from this hyperbolic equation is equal to KS2. By plotting Vmax,app/KM,app as a function of [S2], one can derive KS2 after fitting the curve to Eq 25. The value of α can then be calculated dividing αKS2 by KS2.

Clc1ccc2c(N3CCN(CCCN4CCN(c5ccnc6cc(Cl)ccc56)CC4)CC3)ccnc2c1 [PPQ, piperaquine]
PfCRTDd2-mediated PPQ transport 500 µM PPQ (50 µM CQ): 89.07 pmol oocyte-1 h-1 and 87.88 pmol oocyte-1 h-1 and 107.53 pmol oocyte-1 h-1 | PfCRTDd2-mediated PPQ transport 500 µM PPQ (125 µM CQ): 90.95 pmol oocyte-1 h-1 and 93.39 pmol oocyte-1 h-1 and 84.66 pmol oocyte-1 h-1 | PfCRTDd2-mediated PPQ transport 500 µM PPQ (200 µM CQ): 77.82 pmol oocyte-1 h-1 and 87.40 pmol oocyte-1 h-1 and 96.04 pmol oocyte-1 h-1 | PfCRTDd2-mediated PPQ transport 500 µM PPQ (400 µM CQ): 65.21 pmol oocyte-1 h-1 and 77.83 pmol oocyte-1 h-1 and 82.19 pmol oocyte-1 h-1 | v / (Vmax - v) (1/[PPQ] 0.002000 µM-1): 0.5629 | v / (Vmax - v) (1/[PPQ] 0.002857 µM-1): 0.5805 | v / (Vmax - v) (1/[PPQ] 0.005000 µM-1): 0.7051 | v / (Vmax - v) (1/[PPQ] 0.008000 µM-1): 0.9675 | v / (Vmax - v) (1/[PPQ] 0.020000 µM-1): 1.1790 | most plausible inhibition model (16 models, ΔAICC, Akaike weight, F-test, label = cold inhibitor of the other drug's transport): partial noncompetitive inhibition | Vmax, maximal velocity of drug transport (Mixed (Partial) model, drug as radiolabeled substrate): 130 ± 3 pmol oocyte^-1 h^-1 | Kd (Mixed (Partial) model, drug as cold inhibitor, read-out: KS, dissociation constant for the PfCRT-substrate complex): 210 ± 50 µM | Kd (Mixed (Partial) model, drug as radiolabeled substrate, read-out: KS, dissociation constant for the PfCRT-substrate complex): 125 ± 9 µM | β, partiality factor (Mixed (Partial) model): 0.63 ± 0.08 | α, KS interaction factor (Mixed (Partial) model, label = radiolabeled substrate, other drug cold inhibitor): 1.2 ± 0.3 | Vmax, maximal velocity of drug transport (Noncompetitive (Partial) model, drug as radiolabeled substrate, other drug as cold inhibitor): 131 pmol oocyte^-1 h^-1 and 131 ± 2 pmol oocyte^-1 h^-1 | Kd (Noncompetitive (Partial) model, drug as cold inhibitor, read-out: KS, dissociation constant for the PfCRT-substrate complex): 201 µM and 200 µM | Kd (Noncompetitive (Partial) model, drug as radiolabeled substrate, read-out: KS, dissociation constant for the PfCRT-substrate complex): 130 ± 6 µM | β, partiality factor (Noncompetitive (Partial) model): 0.60 and 0.60 ± 0.06 | KMapp ([3H]PPQ + CQ) ([CQ] 0 µM): 122.92 µM | Vmaxapp ([3H]PPQ + CQ) ([CQ] 0 µM): 130.71 pmol oocyte-1 h-1 | Vmaxapp/KMapp ([3H]PPQ + CQ) ([CQ] 0 µM): 1.0634 h⁻¹ | KMapp ([3H]PPQ + CQ) ([CQ] 25 µM): 130.31 µM | Vmaxapp ([3H]PPQ + CQ) ([CQ] 25 µM): 125.79 pmol oocyte-1 h-1 | Vmaxapp/KMapp ([3H]PPQ + CQ) ([CQ] 25 µM): 0.9653 h⁻¹ | KMapp ([3H]PPQ + CQ) ([CQ] 50 µM): 129.68 µM | Vmaxapp ([3H]PPQ + CQ) ([CQ] 50 µM): 119.39 pmol oocyte-1 h-1 | Vmaxapp/KMapp ([3H]PPQ + CQ) ([CQ] 50 µM): 0.9206 h⁻¹ | KMapp ([3H]PPQ + CQ) ([CQ] 125 µM): 128.38 µM | Vmaxapp ([3H]PPQ + CQ) ([CQ] 125 µM): 113.74 pmol oocyte-1 h-1 | Vmaxapp/KMapp ([3H]PPQ + CQ) ([CQ] 125 µM): 0.8860 h⁻¹ | KMapp ([3H]PPQ + CQ) ([CQ] 200 µM): 133.02 µM | Vmaxapp ([3H]PPQ + CQ) ([CQ] 200 µM): 109.91 pmol oocyte-1 h-1 | Vmaxapp/KMapp ([3H]PPQ + CQ) ([CQ] 200 µM): 0.8262 h⁻¹ | KMapp ([3H]PPQ + CQ) ([CQ] 400 µM): 140.80 µM | Vmaxapp ([3H]PPQ + CQ) ([CQ] 400 µM): 99.57 pmol oocyte-1 h-1 | Vmaxapp/KMapp ([3H]PPQ + CQ) ([CQ] 400 µM): 0.7072 h⁻¹ | Kd (secondary plot, half-maximum inhibitory concentration of Vmax,app versus inhibitor concentration, read-out: αKS, dissociation constant between the drug and the PfCRT complex with the other drug): 205 ± 50 µM | α (αKS divided by KS) (secondary plots, label = prebound drug): 0.9 ± 0.7

— article PMC10281575, “PfCRT mutations conferring piperaquine resistance in falciparum malaria shape the kinetics of quinoline drug binding and transport” (PLOS Pathogens, 2023)
